Drawing on ChEMBL document CHEMBL3351664, “Acylphloroglucinol derivatives from Hypericum andinum: antidepressant-like activity of andinin A” (J Nat Prod, 2014), this text covers Activity for one compound.

Data set [1] relates to Mus musculus. Briefly: Toxicity in po dosed CF1 mouse assessed as effect on locomotor activity at 30 mg/kg, po measured after 60 mins by open-field test. Type of data set: organism-based. On the set-up: dose 30 mg/kg, route oral. As to conditions: in vivo, 1 h.
For data set [2], the system named is Mus musculus. The data set can be described thus: Antidepressant-like activity in po dosed mouse assessed as reduction in the immobility time by forced-swimming test. In kind it is functional, organism-based.

Molecules are shown by their SMILES.

With `CC(C)=CCOc1cc(O)c(C(=O)C(C)C)c(O)c1CC1=C(O)C(C)(C)C(O)=C(C(=O)C(C)C)C1=O`, the Activity entry in the data set on Mus musculus [1] is “Non-toxic”; in the data set with Mus musculus [2] it was “Dose-dependent effect”.
